Results as given in paper PMC3871574, “Genes Involved in Degradation of para-Nitrophenol Are Differentially Arranged in Form of Non-Contiguous Gene Clusters in Burkholderia sp. strain SJ98” (PLoS ONE, 2013).
Where two headings read alike, the source gives them in different places.

Tested on: PnpA (His-6-PnpA; p-nitrophenol 4-monooxygenase, PnpM)
Assay: spectrophotometric monooxygenase assay, Michaelis-Menten
Format: biochemical, Burkholderia sp. SJ98
Description: spectrophotometric monooxygenase assay, Michaelis-Menten on PnpA (His-6-PnpA; p-nitrophenol 4-monooxygenase, PnpM)

| SMILES | Km [µM] | Km (fixed NADH, 0.02 mM FAD, 50 mM phosphate pH 7.4, PNP 12.5-250 µM) [µM] |
| --- | --- | --- |
| NC(=O)C1=CN([C@@H]2O[C@H](COP(=O)(O)OP(=O)(O)OC[C@H]3O[C@@H](n4cnc5c(N)ncnc54)[C@H](O)[C@@H]3O)[C@@H](O)[C@H]2O)C=CC1 [NADH] | 96 ± 7.74 |  |
| O=[N+]([O-])c1ccc(O)cc1 [PNP, p-nitrophenol] |  | 35.4 ± 5.95 |
